Assay results reported in PubChem BioAssay AID1259407 (Chemical Carcinogenesis Research Information System (CCRIS), 2018).
Active and inactive are the calls of the source. The rule behind the calls is not given here.

Test system: CCRIS mutagenicity, Ames/micronucleus/aberration tests
Test: CCRIS mutagenicity studies
[1] = Test System: AMES SALMONELLA TYPHIMURIUM, Strain/Indicator: TA98, Metabolic Activation: NONE, Method: PREINCUBATION
[2] = Test System: AMES SALMONELLA TYPHIMURIUM, Strain/Indicator: TA98, Metabolic Activation: RAT, LIVER, S-9, AROCLOR 1254, Method: PREINCUBATION
[3] = Test System: AMES SALMONELLA TYPHIMURIUM, Strain/Indicator: TA100, Metabolic Activation: NONE, Method: PREINCUBATION
[4] = Test System: AMES SALMONELLA TYPHIMURIUM, Strain/Indicator: TA100, Metabolic Activation: RAT, LIVER, S-9, AROCLOR 1254, Method: PREINCUBATION
[5] = Test System: AMES SALMONELLA TYPHIMURIUM, Strain/Indicator: TA1535, Metabolic Activation: RAT, LIVER, S-9, AROCLOR 1254, Method: PREINCUBATION
[6] = Test System: AMES SALMONELLA TYPHIMURIUM, Strain/Indicator: TA97, Metabolic Activation: NONE, Method: STANDARD PLATE
[7] = Test System: AMES SALMONELLA TYPHIMURIUM, Strain/Indicator: TA97, Metabolic Activation: RAT, LIVER, S-9, AROCLOR 1254, Method: STANDARD PLATE
[8] = Test System: AMES SALMONELLA TYPHIMURIUM, Strain/Indicator: TA98, Metabolic Activation: NONE, Method: STANDARD PLATE
[9] = Test System: AMES SALMONELLA TYPHIMURIUM, Strain/Indicator: TA98, Metabolic Activation: RAT, LIVER, S-9, AROCLOR 1254, Method: STANDARD PLATE
[10] = Test System: AMES SALMONELLA TYPHIMURIUM, Strain/Indicator: TA100, Metabolic Activation: NONE, Method: STANDARD PLATE
[11] = Test System: AMES SALMONELLA TYPHIMURIUM, Strain/Indicator: TA100, Metabolic Activation: RAT, LIVER, S-9, AROCLOR 1254, Method: STANDARD PLATE
[12] = Test System: AMES SALMONELLA TYPHIMURIUM, Strain/Indicator: TA1535, Metabolic Activation: NONE, Method: STANDARD PLATE
[13] = Test System: AMES SALMONELLA TYPHIMURIUM, Strain/Indicator: TA102, Metabolic Activation: NONE, Method: STANDARD PLATE
[14] = Test System: AMES SALMONELLA TYPHIMURIUM, Strain/Indicator: TA102, Metabolic Activation: RAT, LIVER, S-9, AROCLOR 1254, Method: STANDARD PLATE

Question: With `ClC(Cl)(Cl)c1ccccc1` as the molecule, how does the mutagenic call (Test System: AMES SALMONELLA TYPHIMURIUM, Strain/Indicator: TA98, Metabolic Activation: HAMSTER, LIVER, S-9, AROCLOR 1254 (30%), Method: PREINCUBATION) read?
Answer: active; positive

Question: What about the mutagenic call [1] of the same molecule?
Answer: inactive; negative

Question: What about the mutagenic call (Test System: AMES SALMONELLA TYPHIMURIUM, Strain/Indicator: TA98, Metabolic Activation: RAT, LIVER, S-9, AROCLOR 1254 (30%), Method: PREINCUBATION) of the same molecule?
Answer: active; positive

Question: What about the mutagenic call [2] of the same molecule?
Answer: active; positive

Question: And the mutagenic call (Test System: AMES SALMONELLA TYPHIMURIUM, Strain/Indicator: TA100, Metabolic Activation: HAMSTER, LIVER, S-9, AROCLOR 1254 (30%), Method: PREINCUBATION)?
Answer: active; positive

Question: What about the mutagenic call [3] of the same molecule?
Answer: active; positive

Question: What about the mutagenic call (Test System: AMES SALMONELLA TYPHIMURIUM, Strain/Indicator: TA100, Metabolic Activation: RAT, LIVER, S-9, AROCLOR 1254 (30%), Method: PREINCUBATION) of the same molecule?
Answer: active; positive

Question: What about the mutagenic call [4] of the same molecule?
Answer: active; positive

Question: What about the mutagenic call [5] of the same molecule?
Answer: active; positive

Question: `O=c1[nH]c(=O)n([C@H]2C[C@H](O)[C@@H](CO)O2)cc1CCCCl` was tested. Which mutagenic call (Test System: AMES SALMONELLA TYPHIMURIUM, Strain/Indicator: TA97, Metabolic Activation: NONE, Method: PREINCUBATION) did it give?
Answer: inactive; negative

Question: And the mutagenic call (Test System: AMES SALMONELLA TYPHIMURIUM, Strain/Indicator: TA97, Metabolic Activation: RAT, LIVER, S-9, AROCLOR 1254, Method: PREINCUBATION)?
Answer: inactive; negative

Question: And the mutagenic call [1]?
Answer: inactive; negative

Question: And the mutagenic call [2]?
Answer: inactive; negative

Question: And the mutagenic call [3]?
Answer: inactive; negative

Question: What about the mutagenic call [4] of the same molecule?
Answer: inactive; negative

Question: And the mutagenic call (Test System: AMES SALMONELLA TYPHIMURIUM, Strain/Indicator: TA102, Metabolic Activation: NONE, Method: PREINCUBATION)?
Answer: inactive; negative

Question: What about the mutagenic call (Test System: AMES SALMONELLA TYPHIMURIUM, Strain/Indicator: TA102, Metabolic Activation: RAT, LIVER, S-9, AROCLOR 1254, Method: PREINCUBATION) of the same molecule?
Answer: inactive; negative

Question: And the mutagenic call (Test System: AMES SALMONELLA TYPHIMURIUM, Strain/Indicator: TA104, Metabolic Activation: NONE, Method: PREINCUBATION)?
Answer: inactive; negative

Question: What about the mutagenic call (Test System: AMES SALMONELLA TYPHIMURIUM, Strain/Indicator: TA104, Metabolic Activation: RAT, LIVER, S-9, AROCLOR 1254, Method: PREINCUBATION) of the same molecule?
Answer: inactive; negative

Question: What about the mutagenic call (Test System: AMES SALMONELLA TYPHIMURIUM, Strain/Indicator: TA1535, Metabolic Activation: NONE, Method: PREINCUBATION) of the same molecule?
Answer: inactive; negative

Question: What about the mutagenic call [5] of the same molecule?
Answer: inactive; negative

Question: And the mutagenic call (Test System: AMES SALMONELLA TYPHIMURIUM, Strain/Indicator: TA1537, Metabolic Activation: NONE, Method: PREINCUBATION)?
Answer: inactive; negative

Question: What about the mutagenic call (Test System: AMES SALMONELLA TYPHIMURIUM, Strain/Indicator: TA1537, Metabolic Activation: RAT, LIVER, S-9, AROCLOR 1254, Method: PREINCUBATION) of the same molecule?
Answer: inactive; negative

Question: What about the mutagenic call (Test System: AMES SALMONELLA TYPHIMURIUM, Strain/Indicator: TA1538, Metabolic Activation: NONE, Method: PREINCUBATION) of the same molecule?
Answer: inactive; negative

Question: What about the mutagenic call (Test System: AMES SALMONELLA TYPHIMURIUM, Strain/Indicator: TA1538, Metabolic Activation: RAT, LIVER, S-9, AROCLOR 1254, Method: PREINCUBATION) of the same molecule?
Answer: inactive; negative

Question: What about the mutagenic call (Test System: CHINESE HAMSTER V-79, Strain/Indicator: V-79/8-AZAGUANINE, Metabolic Activation: NONE) of the same molecule?
Answer: inactive; negative

Question: For `Cn1cnc2c(NO)ncnc21`, which mutagenic call [6] is on record?
Answer: inactive; negative

Question: And the mutagenic call [7]?
Answer: inactive; negative

Question: What about the mutagenic call [8] of the same molecule?
Answer: inactive; negative

Question: What about the mutagenic call [9] of the same molecule?
Answer: active; positive

Question: What about the mutagenic call [10] of the same molecule?
Answer: inactive; negative

Question: And the mutagenic call [11]?
Answer: inactive; negative

Question: For `O=C1CCc2ccc3ccc4ccccc4c3c21`, which mutagenic call [11] is on record?
Answer: inactive; negative

Question: How did the mutagenic call [8] turn out when `C[C@]12CC[C@H](O)C[C@@H]1CC[C@@H]1[C@@H]2CC[C@]2(C)NC(=O)CC[C@@H]12` was run?
Answer: inactive; negative

Question: And the mutagenic call [9]?
Answer: inactive; negative

Question: What about the mutagenic call [10] of the same molecule?
Answer: inactive; negative

Question: And the mutagenic call [11]?
Answer: inactive; negative

Question: And the mutagenic call [12]?
Answer: inactive; negative

Question: And the mutagenic call (Test System: AMES SALMONELLA TYPHIMURIUM, Strain/Indicator: TA1535, Metabolic Activation: RAT, LIVER, S-9, AROCLOR 1254, Method: STANDARD PLATE)?
Answer: inactive; negative

Question: What about the mutagenic call (Test System: AMES SALMONELLA TYPHIMURIUM, Strain/Indicator: TA1537, Metabolic Activation: NONE, Method: STANDARD PLATE) of the same molecule?
Answer: inactive; negative

Question: And the mutagenic call (Test System: AMES SALMONELLA TYPHIMURIUM, Strain/Indicator: TA1537, Metabolic Activation: RAT, LIVER, S-9, AROCLOR 1254, Method: STANDARD PLATE)?
Answer: inactive; negative

Question: Which results are given for `CN(Cc1ccc(Br)cc1)N=O`?
Answer: mutagenic call (Test System: AMES SALMONELLA TYPHIMURIUM, Strain/Indicator: TA1535, Metabolic Activation: HAMSTER, LIVER, S-9, AROCLOR 1254, Method: STANDARD PLATE): active; positive; mutagenic call [12]: inactive; negative

Question: With `Cc1cccc(C)c1C` as the molecule, how does the mutagenic call (Test System: AMES SALMONELLA TYPHIMURIUM, Strain/Indicator: TA97A, Metabolic Activation: NONE, Method: STANDARD PLATE) read?
Answer: active; positive

Question: And the mutagenic call (Test System: AMES SALMONELLA TYPHIMURIUM, Strain/Indicator: TA97A, Metabolic Activation: RAT, LIVER, S-9, AROCLOR 1254, Method: STANDARD PLATE)?
Answer: inactive; negative

Question: What about the mutagenic call [8] of the same molecule?
Answer: active; positive

Question: And the mutagenic call [9]?
Answer: inactive; negative

Question: What about the mutagenic call [10] of the same molecule?
Answer: active; positive

Question: What about the mutagenic call [11] of the same molecule?
Answer: inactive; negative

Question: What about the mutagenic call [13] of the same molecule?
Answer: active; positive

Question: What about the mutagenic call [14] of the same molecule?
Answer: inactive; negative

Question: Which results are given for `CCN(CC)S(=O)(=O)c1ccc(NC(C)=O)cc1`?
Answer: mutagenic call [1]: inactive; negative; mutagenic call [2]: inactive; negative; mutagenic call [3]: inactive; negative; mutagenic call [4]: inactive; negative

Question: With `ClCc1ccccn1` as the molecule, how does the mutagenic call [6] read?
Answer: inactive; negative

Question: And the mutagenic call [7]?
Answer: inactive; negative

Question: What about the mutagenic call [8] of the same molecule?
Answer: inactive; negative

Question: What about the mutagenic call [9] of the same molecule?
Answer: inactive; negative

Question: What about the mutagenic call [10] of the same molecule?
Answer: active; positive

Question: What about the mutagenic call [11] of the same molecule?
Answer: active; positive

Question: What about the mutagenic call [13] of the same molecule?
Answer: inactive; negative

Question: What about the mutagenic call [14] of the same molecule?
Answer: inactive; negative

Question: What about the mutagenic call (Test System: CHINESE HAMSTER OVARY, Strain/Indicator: CHO-K1-BH4 (HGPRT)/6-THIOGUANINE, Metabolic Activation: NONE) of the same molecule?
Answer: active; positive

Question: What about the mutagenic call (Test System: CHINESE HAMSTER OVARY, Strain/Indicator: CHO-K1-BH4 (HGPRT)/6-THIOGUANINE, Metabolic Activation: S-9) of the same molecule?
Answer: inactive; negative

Question: Which mutagenic call (Test System: AMES SALMONELLA TYPHIMURIUM, Strain/Indicator: TA98(1,8-DNP6), Metabolic Activation: NONE, Method: PREINCUBATION) does the source give for `CC(=O)Oc1cc([N+](=O)[O-])c2ccc3cccc4ccc1c2c43` here?
Answer: active; positive

Question: And the mutagenic call (Test System: AMES SALMONELLA TYPHIMURIUM, Strain/Indicator: TA98(NR), Metabolic Activation: NONE, Method: PREINCUBATION)?
Answer: active; positive

Question: And the mutagenic call [1]?
Answer: active; positive

Question: What about the mutagenic call [2] of the same molecule?
Answer: inactive; negative

Question: And the mutagenic call [3]?
Answer: active; positive

Question: And the mutagenic call [4]?
Answer: active; positive

Question: For `COc1cc([N+](=O)[O-])ccc1NC(C)=O`, which mutagenic call [8] is on record?
Answer: active; positive

Question: What about the mutagenic call [9] of the same molecule?
Answer: inactive; negative

Question: For `O=[N+]([O-])c1ccc2c(c1)-c1cccc3cccc-2c13`, which mutagenic call [8] is on record?
Answer: active; positive
